The values that follow come from patent US20240316079A1, “USE OF AKR1C3-ACTIVATED COMPOUND” (OBI PHARMA, INC., priority 2021, published 2024).

One data set concerns HuCCT1. Briefly: In vitro proliferation assay, liver cancer cell line HuCCT1. As to conditions: Homo sapiens, HuCCT-1, 96 hours of drug exposure, AKR1C3 protein Low, read-out: 3424 IC50. The format is cell-based. On the procedure: (§1) IC50 was calculated as described above.
Another data set relates to LU2057 PDX. The data set is described as follows: Lung cancer PDX model LU2057 (low AKR1C3). It counts as in vivo, mice. The method, then:
Anti-tumor activity of 3424 in PDX models was assessed at CrownBio Bioscience (Beijing, China) Inc. using female BALB/c nude mice (6-7 weeks old, Beijing Anikeeper Biotech Co., Ltd, Beijing, China). Tumor fragments (PA1280, GA6201, LU2057 and LU2505) from stock mice inoculated with selected primary human cancer tissues (pancreatic, gastric cancer, and lung) were harvested and used for inoculation into BALB/c nude mice. Each mouse was inoculated subcutaneously for tumor development. Mice were allocated randomly into experimental groups when the average tumor size reached ˜100 mm^3) by using StudyDirector™ Ver 3.1.399.19 (Studylog Systems, Inc., S. San Francisco, CA, USA). Prodrug 3424 was administered IV at the indicated doses with a regimen of Q7D×3. Each group consisted of 5-6 mice. The grouping day was denoted as Day 0. Prodrug 3424 was administrated to the tumor-bearing mice from Day 0 through Days as indicated for each study.

A further data set deals with T1, recombinant human AKR1C3 (Homo sapiens, UniProt P42330).
T1 construct: purchased Abcam (Cambridge, MA)
T1 sequence (P42330 1-323): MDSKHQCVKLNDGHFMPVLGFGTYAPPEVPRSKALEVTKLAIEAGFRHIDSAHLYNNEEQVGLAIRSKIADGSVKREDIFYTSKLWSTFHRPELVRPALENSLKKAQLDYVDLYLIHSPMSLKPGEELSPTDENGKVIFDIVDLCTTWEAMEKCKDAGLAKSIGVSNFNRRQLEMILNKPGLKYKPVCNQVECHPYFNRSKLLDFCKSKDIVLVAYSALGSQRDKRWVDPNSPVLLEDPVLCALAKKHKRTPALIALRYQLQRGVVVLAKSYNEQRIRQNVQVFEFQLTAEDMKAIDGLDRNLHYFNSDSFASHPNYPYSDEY
Briefly: Kinetic analysis of AKR1C3 towards various substrates (NADPH absorbance 340 nm). It counts as biochemical. As to conditions: substrate of AKR1C3, 25° C., triplicate. On the procedure:
The reaction was incubated at 25° C. and terminated at various time points by adding acetonitrile and methanol (at a ratio of 9 to 1) and subjected for LC-MS/MS analysis. For enzyme kinetic analysis, the activity was determined with a SpectraMax M2^e spectrophotometer (Molecular Devices, LLC, San Jose, CA) by measuring the decrease in absorbance of the NADPH at 340 nm (E=6270 M^−1 cm^−1). After the initiation of the reaction by addition of substrates, the reactions were monitored at 30 s intervals at 25° C. The non-substrate reaction rate was also monitored as background and its slope was used to determine the initial velocity of the reaction. The kinetic data reported were the average of triplicate measurements.

The next data set has as its system HLF. Briefly: In vitro proliferation assay, liver cancer cell line HLF. The conditions noted are these: Homo sapiens, 96 hours of drug exposure, AKR1C3 protein Low, read-out: 3424 IC50. It counts as cell-based. The method, then:
as §1

In a further data set the test system is NCI-H1944. Briefly: In vitro proliferation assay, NSCLC cell line NCI-H1944. The format is cell-based. As to conditions: Homo sapiens, 72 hours of drug exposure, read-out: 3424 IC50. On the procedure:
as §1

The subject of another data set is CAL12T. The data set is described as follows: In vitro proliferation assay, NSCLC cell line CAL12T. It counts as cell-based. As to conditions: Homo sapiens, CAL-12T, 72 hours of drug exposure, read-out: 3424 IC50. On the procedure:
as §1

Another data set deals with NCI-H1563. The data set is described as follows: In vitro proliferation assay, NSCLC cell line NCI-H1563. It counts as cell-based. The conditions noted are these: Homo sapiens, 72 hours of drug exposure, read-out: 3424 IC50. On the procedure:
as §1

Molecules are shown by their SMILES. A value given as a limit tells only on which side of the number the result lay.

One may read the IC50 as the midpoint of a concentration-inhibition curve. One may read the Km as the substrate concentration at which the rate is half of its maximum.

`C[C@H](OP(=O)(N1CC1)N1CC1)c1ccc([N+](=O)[O-])c(Oc2cccc(C(=O)N(C)C)c2)c1` [Compound 3424, (S)-1-(3-(3-N,N-dimethylaminocarbonyl)phenoxyl-4-mtrophenyl)-1-ethyl-N,N′-bis(ethylene)phosphoramidate]: the IC50 in the data set with HuCCT1 was 696 nM; in the data set on HLF, more than 1000 nM; in the data set with NCI-H1944, 2.3 nM; in the data set on CAL12T it was 29.1 nM; in the data set on NCI-H1563 it was 2.5 nM. Further, the TGI with LU2057 PDX (3424 2.5 mg/kg i.v. Q7D × 3) is recorded as −20.9%. Also, in the data set with LU2057 PDX (LU2057, all tested doses), the “tolerability / body weight loss” value was “no body weight loss”. Besides, the Kcat at recombinant human AKR1C3 was determined as 0.64 ± 0.01 min⁻¹. In addition, at recombinant human AKR1C3 (read-out: Km), the Km came out at 12.6 ± 0.28 µM.
